Data reported in patent US10059720B2, “Pyridine derivative” (Astellas Pharma Inc., priority 2014, dated 2018).
Structures can show the parent of a compound that is named as a salt. Where two headings read alike, the source gives them in different places.

Legend:
IRAP = IRAP (Rattus norvegicus (Rat), UniProt P97629); assay: Inhibition of IRAP activity (AVP degradation by rat epididymal fat pad microsomes, MALDI-MS); details: read-out: IRAP IC50
[1] = Antidiuresis test in continuously hydrated rats with additional water loading (oral administration); format: in vivo, Male Wistar rats; details: for change of plasma sodium level (in words): after three hours and four hours of the administration, additional water loads; for urine production after additional water loads: groups with additional water loads (15 mL/kg at 2 h and 3 h); for urine production after additional water loads / plasma sodium level, 3 hours after administration / plasma sodium level, 4 hours after administration / urine production: EX-a 100 mg/kg, EX-b 30 mg/kg; for urine production after additional water loads / urine production: dDAVP 30 μg/kg oral; for plasma sodium level, 3 hours after administration / plasma sodium level, 4 hours after administration: groups with additional water loads, oral, dDAVP 30 μg/kg; for urine production: groups without additional water loads, after two hours of the administration, maintained until four hours
Description: FIG. 1 is a graph showing temporal changes in urine volumes of individual groups in the pharmacological test (4): antidiuresis test in continuously hydrated rats with additional water loading. The vertical axis represents urine volume (mL/30 min) and the horizontal axis represents elapsed time (hr) from the administration of the test compound. Groups represented by “ . . . +Water” are water-loaded groups. The arrows in the horizontal axis represent the time points of additional water-loading.
(4) Antidiuresis Test in Continuously Hydrated Rats with Additional Water Loading (Oral Administration)
Male Wistar rats were used in the test. Initially, water load with 15 mL/kg of distilled water was forcedly administered to the rats. Every 30 minutes after loading water, urine volume collected during 30 minutes was measured and distilled water was forcedly administered to the rats in an amount equal to the urine volume excreted during the last 30 minutes. This water load procedure was repeated to the termination of the test to maintain the diuretic state. […] The individual groups were further divided into two subgroups, and additional distilled water of 15 mL/kg load was forcedly administered to one of the subgroups two times, i.e. at two hours and three hours after the administration. For comparison, the Vehicle group administered only with the vehicle was also subjected to the additional administrations of water load. Blood was collected from a half of the rats in each group subjected to additional administrations of water load, at three hours after the administration (immediately before the second additional water load) and from the other half at four hours after the administration, and plasma sodium levels were measured with an automatic electrolyte analyzer to determine the plasma sodium levels at three hours and four hours after the administration, respectively (each group consisted of seven to eight rats). Changes in the urine volume in individual groups are shown in FIG. 1, and the plasma sodium levels of the group administered with additional water loads are shown in Table 4.

[2] = rat fat pad microsomes, AVP 25 μM, 1 h at 37° C.

IRAP, sequence (P97629 whole entry): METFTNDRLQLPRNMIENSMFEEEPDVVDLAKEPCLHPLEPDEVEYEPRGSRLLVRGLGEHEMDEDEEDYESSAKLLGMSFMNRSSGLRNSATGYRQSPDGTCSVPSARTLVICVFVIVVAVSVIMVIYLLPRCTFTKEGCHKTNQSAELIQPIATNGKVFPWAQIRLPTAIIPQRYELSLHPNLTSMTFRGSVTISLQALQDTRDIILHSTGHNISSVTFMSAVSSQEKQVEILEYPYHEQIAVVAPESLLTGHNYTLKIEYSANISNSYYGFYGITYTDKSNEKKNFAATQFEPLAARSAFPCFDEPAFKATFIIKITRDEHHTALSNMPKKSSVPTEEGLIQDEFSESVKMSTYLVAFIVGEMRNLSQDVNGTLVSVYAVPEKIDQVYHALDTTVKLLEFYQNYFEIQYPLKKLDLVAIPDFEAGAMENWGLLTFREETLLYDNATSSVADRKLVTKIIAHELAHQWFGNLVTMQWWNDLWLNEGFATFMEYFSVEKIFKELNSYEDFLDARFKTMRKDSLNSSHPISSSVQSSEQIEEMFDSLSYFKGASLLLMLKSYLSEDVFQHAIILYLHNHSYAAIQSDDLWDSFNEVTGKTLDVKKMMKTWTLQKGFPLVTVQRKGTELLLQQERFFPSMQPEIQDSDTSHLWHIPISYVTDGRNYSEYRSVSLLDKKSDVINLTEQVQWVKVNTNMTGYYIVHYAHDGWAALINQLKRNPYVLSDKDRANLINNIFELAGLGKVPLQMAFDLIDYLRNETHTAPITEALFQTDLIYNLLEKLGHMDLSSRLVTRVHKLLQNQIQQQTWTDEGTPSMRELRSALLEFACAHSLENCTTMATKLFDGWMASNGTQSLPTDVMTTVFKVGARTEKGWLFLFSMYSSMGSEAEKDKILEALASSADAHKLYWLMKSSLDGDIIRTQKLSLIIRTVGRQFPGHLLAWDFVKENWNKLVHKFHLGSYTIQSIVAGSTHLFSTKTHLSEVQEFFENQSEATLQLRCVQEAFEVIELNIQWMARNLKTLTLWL

`C[C@H]1CC[C@H](Oc2ccnc(C[C@](O)(C(=O)O)[C@@H](N)Cn3cccn3)c2)CC1` [Example 85] showed an IC50 (IRAP; [2]) of 110 nM.

In the case of `NC(COc1ccccc1Br)C(O)(Cc1cc(OC2CCCCC2)ccn1)C(=O)O` (centres unmarked) [Example 71], the IC50 (IRAP; [2]) is reported as 15 nM.

With `CC(C)C[C@H](N)[C@](O)(Cc1cc(OCCOC2CCCCC2)ccn1)C(=O)O` [Example 97] the IC50 (IRAP; [2]) was 2.8 nM.

In the case of `CC(C)C[C@H](N)[C@](O)(Cc1cc2c(cn1)OCCO2)C(=O)O` [Example 62], the IC50 (IRAP; [2]) is reported as 290 nM.

For `Cc1ccc(OC[C@H](N)[C@](O)(Cc2cc(OC3CCCCC3)ccn2)C(=O)O)nc1` [Example 77], the IC50 (IRAP; [2]) was 8.8 nM.

`COCCCCC[C@H](N)[C@](O)(Cc1cc(OC2CCCCC2)ccn1)C(=O)O` [Example 75] showed an IC50 (IRAP; [2]) of 1.2 nM.

In the case of `COc1cccc(Oc2ccnc(C[C@](O)(C(=O)O)[C@@H](N)CC(C)C)c2)c1` [Example 101], the IC50 (IRAP; [2]) is reported as 200 nM.

In the case of `N[C@@H](COc1cccc(Br)c1)[C@](O)(Cc1cc(OC2CCCCC2)ccn1)C(=O)O` [Example 70], the IC50 (IRAP; [2]) is reported as 13 nM.

For `N[C@@H](c1ccc(-c2ccccc2)cc1)[C@](O)(Cc1cc(OC2CCCCC2)ccn1)C(=O)O` [Example 36], the IC50 (IRAP; [2]) was 4.9 nM.

With `CC(C)C[C@H](N)[C@](O)(Cc1cc(O[C@H]2CC[C@H](C)CC2)ccn1)C(=O)O` (relative stereo) [EX-a, (2R,3S)-3-amino-2-hydroxy-5-methyl-2-({4-[(trans-4-methylcyclohexyl)oxy]pyridin-2-yl}methyl)hexanoic acid] the “change of plasma sodium level (in words)” value [1] was “slightly decreased”, the “urine production after additional water loads” value [1] was “resumed after administration of the additional water loads” and the “plasma sodium level, 3 hours after administration” value (“plasma sodium level, 3 hours” for short) [1] was 134.9 ± 0.4 mmol/L. The “plasma sodium level, 4 hours after administration” value (shortened to “plasma sodium level, 4 hours”) [1] was 133.2 ± 0.7 mmol/L and the urine production [1] was “almost stopped”.

`N[C@@H](c1ccc(N2CCOCC2)cc1)[C@](O)(Cc1cc(OC2CCCCC2)ccn1)C(=O)O` [Example 48] gave an IC50 (IRAP; [2]) of 5.2 nM.

`CC(C)C[C@H](N)[C@](O)(Cc1cc(O)ccn1)C(=O)O` [7(2), (2R,3S)-3-amino-2-hydroxy-2-[(4-hydroxypyridin-2-yl)methyl]-5-methylhexanoic acid] gave an IC50 (IRAP; [2]) of 200 nM.

Molecule `N[C@@H](COCCC(F)(F)F)[C@](O)(Cc1cc(OC2CCCCC2)ccn1)C(=O)O` [Example 74] has an IC50 (IRAP; [2]) of 5.3 nM.

In the case of `N[C@@H](c1ccc(S(=O)(=O)C2CC2)cc1)[C@](O)(Cc1cc(OC2CCCCC2)ccn1)C(=O)O` [Example 24], the IC50 (IRAP; [2]) is reported as 6.2 nM.

In the case of `N[C@@H](c1ccc(C2CC2)cc1)[C@](O)(Cc1cc(OC2CCCCC2)ccn1)C(=O)O` [Example 23], the IC50 (IRAP; [2]) is reported as 8.2 nM.

With `COCc1ccc([C@H](N)[C@](O)(Cc2cc(OC3CCCCC3)ccn2)C(=O)O)cc1` [Example 50] the IC50 (IRAP; [2]) was 14 nM.

In the case of `NC(=O)CC[C@@H]1NC(=O)[C@H](Cc2ccccc2)NC(=O)[C@H](Cc2ccc(O)cc2)NC(=O)CCSSC[C@@H](C(=O)N2CCC[C@H]2C(=O)N[C@H](CCCN=C(N)N)C(=O)NCC(N)=O)NC(=O)[C@H](CC(N)=O)NC1=O` [dDAVP, Desmopressin, reference compound], the “change of plasma sodium level (in words)” value [1] is reported as “more significant decreases”, the “urine production after additional water loads” value [1] is reported as “not resumed” and the “plasma sodium level, 3 hours” value [1] is reported as 132.0 ± 0.4 mmol/L. For the same molecule, the “plasma sodium level, 4 hours” value [1] was 128.0 ± 0.3 mmol/L and the urine production [1] was “almost stopped”.

Molecule `CC(C)CC[C@H](N)[C@](O)(Cc1cc(OC2CCCCC2)ccn1)C(=O)O` [Example 66] has an IC50 (IRAP; [2]) of 1.9 nM.

In the case of `CS(=O)(=O)c1ccc(-c2ccc([C@H](N)[C@](O)(Cc3cc(OC4CCCCC4)ccn3)C(=O)O)cc2)cc1` [Example 45], the IC50 (IRAP; [2]) is reported as 0.42 nM.

Work on `COc1cc(C[C@](O)(C(=O)O)[C@@H](N)CC(C)C)ncc1Br` [Example 53] yielded an IC50 (IRAP; [2]) of 290 nM.

In the case of `N[C@@H](COCc1ccccc1)[C@](O)(Cc1cc(OC2CCCCC2)ccn1)C(=O)O` [Example 51], the IC50 (IRAP; [2]) is reported as 13 nM.

For `COc1cc(F)cc(OC[C@H](N)[C@](O)(Cc2cc(OC3CCCCC3)ccn2)C(=O)O)c1` [Example 31], the IC50 (IRAP; [2]) was 27 nM.

In the case of `N[C@@H](COC1CCCCC1)[C@](O)(Cc1cc(OCCC2CC2)ccn1)C(=O)O` [Example 79], the IC50 (IRAP; [2]) is reported as 33 nM.

For `N[C@@H](/C=C/c1ccccc1)[C@](O)(Cc1cc(OC2CCCCC2)ccn1)C(=O)O` [Example 40], the IC50 (IRAP; [2]) was 8 nM.

`COCc1ccc(OC[C@H](N)[C@](O)(Cc2cc(OC3CCCCC3)ccn2)C(=O)O)cc1` [Example 30] showed an IC50 (IRAP; [2]) of 11 nM.

With `CC(C)C[C@H](N)[C@](O)(Cc1cc2c(cn1)ncn2CCC1CCCCC1)C(=O)O` [Example 33] the IC50 (IRAP; [2]) was 2.5 nM.

`COc1ccnc(C[C@](O)(C(=O)O)[C@@H](N)CC(C)C)c1C` [Example 22] gave an IC50 (IRAP; [2]) of 250 nM.

For `CCSC[C@H](N)[C@](O)(Cc1cc(O[C@H]2CC[C@H](C)CC2)ccn1)C(=O)O` [EX-b, (2R,3R)-3-amino-4-(ethylsulfanyl)-2-hydroxy-2-({4-[(trans-4-methylcyclohexyl)oxy]pyridin-2-yl}methyl)butanoic acid], the “change of plasma sodium level (in words)” value [1] was “slightly decreased”, the “urine production after additional water loads” value [1] was “resumed after administration of the additional water loads” and the “plasma sodium level, 3 hours” value [1] was 140.4 ± 0.4 mmol/L. The “plasma sodium level, 4 hours” value [1] was 139.2 ± 0.5 mmol/L and the urine production [1] was “almost stopped”.

In the case of `N[C@@H](COc1ccc(F)cc1)[C@](O)(Cc1cc(NC2CCCCC2)ccn1)C(=O)O` [Example 91], the IC50 (IRAP; [2]) is reported as 15 nM.

In the case of `N[C@@H](c1ccc(Br)cc1)[C@](O)(Cc1cc(OC2CCCCC2)ccn1)C(=O)O` [Example 68], the IC50 (IRAP; value marked *: measured using a dihydrochloride salt of the compound of the Example) is reported as 5.4 nM.

`COc1cc(C[C@](O)(C(=O)O)[C@@H](N)CC(C)C)ncc1COCc1ccccc1` [Example 57] showed an IC50 (IRAP; [2]) of 130 nM.

Molecule `CC(C)C[C@H](N)[C@@]1(Cc2cc(O[C@H]3CC[C@H](C)CC3)ccn2)OC(C)(C)OC1=O` [Example 8, (5R)-5-[(1S)-1-amino-3-methylbutyl]-2,2-dimethyl-5-({4-[(trans-4-methylcyclohexyl)oxy]pyridin-2-yl}methyl)-1,3-dioxolan-4-one dihydrochloride] has an IC50 (IRAP; [2]) of 170 nM.
